This is an account of results in patent US6432403B1, “Antibodies to polypeptides having prenylcysteine carboxyl methlytransferase activity or inhibiting activity” (New York University, priority 1997, dated 2002).

One experiment addresses T1, human pcCMT (Homo sapiens, UniProt O60725).
T1 construct: The 3.6-kb full-length HL60 pcCMT cDNA and an 852-bp cDNA fragment comprising the ORF were subcloned into the eukaryotic expression vectors; expressed in transfected cells; host or cells: COS-1 cells (pCDM8 vector, DEAE-dextran transfection); light membranes after nitrogen cavitation
The experiment can be described thus: Carboxyl methylation of Rho GTPases by COS-1 cell membranes expressing human pcCMT (S-adenosyl-L-[methyl-3H]methionine labeling, SDS-PAGE, fluorography). It is filed as biochemical. To be noted: COS-1 membranes transfected with HL60 cDNA; read-out: ED50 for block of pcCMT activity toward Rho GTPases. Here is the method: FIGS. 5A and 5B show the carboxyl methylation of ras-related GTPases by COS-1 cell membranes expressing ectopic human pcCMT. In FIG. 5A, neutrophil cytosol (CS) containing a mixture of Rho family proteins complexed with Rho-GDI (lanes 2, 3, 6, 7, 10, 11) or RhoA-GDI complexes partially purified from CS (lanes 4, 8, 12) were incubated with the methyl donor S-adenosyl-L-[methyl-^3H]methionine and light membranes derived from nitrogen cavitation of human neutrophils (lanes 1-4) or COS-1 cells transiently transfected with either human pcCMT (lanes 5-8) or vector alone (lanes 9-12). In some reactions (lanes 3, 7, 11) a competitive pcCMT inhibitor, AFC, was included. Reaction products were analyzed by SDS-PAGE and fluorography. The position of carboxyl methylated […] is indicated as is the position of protein phosphatase 2a (PP2a) that is methylated on a C-terminal leucine by an enzyme unrelated to pcCMT (Lee et al, 1993). […] Carboxyl methyltransferase activity was quantitated in membranes of COS-1 cells transfected with HL60 pcCMT using prenylcysteine analogs as defined substrates (Philips et al, 1995). […]

Another experiment has as its system GFP-Nras. The experiment can be described thus: Subcellular localization of GFP-Nras in transfected COS-1 cells (epifluorescence microscopy). Type of experiment: cell-based. The settings on record: 200 μM during the 24-hour transfection. Here is the method:
FIGS. 8A-8C show the effect of a pcCMT inhibitor (AFC) on the subcellular localization of Nras. In FIG. 8A, COS-1 cells were transiently transfected with GFP-Nras and observed live at 24 hours by epifluorescence microscopy to reveal both surface membrane (arrowheads) and intense perinuclear (Golgi) fluorescence. The position of the […] is marked (N). […] Bars indicate […].
Expression of Recombinant pcCMT: The 3.6-kb full-length HL60 pcCMT cDNA and an 852-bp cDNA fragment comprising the ORF were subcloned into the eukaryotic expression vectors pCDM8 and pcDNA3.1 (Invitrogen, Carlsbad, Calif.). Myc-tagged pcCMT was made by adding a sequence encoding the 10-amino acid epitope of c-Myc recognized by monoclonal antibody 9E10 to the C terminus of pcCMT using patch PCR and subcloning into pcDNA3.1. pcCMT tagged at the C terminus with GFP was generated by subcloning the pcCMT ORF into the expression vector pGFP-N3 (Clontech). For pcCMT enzymatic assays, COS-1 cells were grown in 10-cm dishes and transfected with pcCMT with DEAE-dextran as described (Aruffo et al, 1987). For fluorescence microscopy, exponentially growing COS-1, CHO, and NIH3T3 cells were plated the day prior to transfection at 50-60% confluence and transfected with 2 μg of DNA using LipofectAMINE (Life Technologies, Inc.), Gaithersburg, Md.) according to the manufacturer's instructions. […]

Each structure is given as a SMILES string. “Also recorded” adds a separate entry of the source.

T1 sequence (O60725 whole entry, the tested form may be a part): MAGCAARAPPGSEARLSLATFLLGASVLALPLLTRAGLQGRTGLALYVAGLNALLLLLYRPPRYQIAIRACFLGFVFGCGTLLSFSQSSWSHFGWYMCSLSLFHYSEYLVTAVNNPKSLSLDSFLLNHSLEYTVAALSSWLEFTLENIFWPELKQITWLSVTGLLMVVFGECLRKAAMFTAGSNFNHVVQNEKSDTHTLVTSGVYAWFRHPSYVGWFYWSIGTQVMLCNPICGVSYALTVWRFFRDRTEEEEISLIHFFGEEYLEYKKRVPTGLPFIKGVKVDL

Turning to `CC(=O)N[C@@H](CSC/C=C(\C)CC/C=C(\C)CCC=C(C)C)C(=O)O` [AFC, N-acetyl-S-trans,trans-farnesyl-L-cysteine], the EC50 at human pcCMT was determined as 10 µM. Also, the “Effect on membrane localization of GFP-Nras” value in the experiment on GFP-Nras is “blocked; also recorded: predominantly cytosolic localization”.
